Measurements taken from article PMC9144521 (Viruses, 2022).
pEC50: −log10 of the molar value. Counter-ions that a name gives are not always drawn.

Tests used:
AdV3 = assay: Anti-AdV activity assay (IFA of hexon), secondary screen, AdV3; type: cell-based, Human adenoviruses type 3; conditions: for Selective Index AdV3: CC50/EC50, Vero cells; for pEC50: Vero cells, 48 h, IFA of hexon, 0.02 to 5 μM
AdV5 = assay: Anti-AdV activity assay (IFA of hexon), secondary screen, AdV5; type: cell-based, Human adenoviruses type 5; conditions: for Selective Index AdV5: CC50/EC50, Vero cells; for pEC50: Vero cells, 48 h, IFA of hexon, 0.02 to 5 μM
in vitro = conditions: African green monkey

Row | Compound | pEC50 (AdV3) | pEC50 (AdV5) | Selective Index AdV3 (AdV3) | Selective Index AdV5 (AdV5) | CC50 at 48 h (in vitro) [nM] | CC50 at 48 h (in vitro; Vero cells) [nM] | CC50 (Vero cells) [nM]
1 | CO[C@H]1/C=C\C=C(/C)C(=O)NC2=CC(=O)C(NCCN(C)C)=C(C[C@@H](C)C[C@H](OC)[C@H](O)[C@@H](C)/C=C(\C)[C@@H]1OC(N)=O)C2=O [17-DMAG] | 6.66 | 6.37 | >23.20 | >11.58 | > 5000 | – | –
2 | CC(C)c1cc(C(=O)N2Cc3ccc(CN4CCN(C)CC4)cc3C2)c(O)cc1O [AT13387] | 7.10 | 6.74 | >61.84 | >27.13 | – | > 5000 | –
3 | CNC(=O)CN1CCC(Oc2cc3c(Nc4cccc(Cl)c4F)ncnc3cc2OC)CC1 [AZD8931] | 7.30 | < 5.30 | >96.15 | – | > 5000 | – | –
4 | S=C(NCc1ccc2c(c1)OCO2)N1CCN(c2ncnc3c2oc2ccccc23)CC1 [Amuvatinib] | 5.40 | 5.74 | 2.10 | 4.64 | – | > 5000 | –
5 | N#CC1(c2ccc(NC(=O)c3cccnc3NCc3ccncc3)cc2)CCCC1 [Apatinib] | 6.49 | 5.44 | >15.41 | >1.39 | > 5000 | – | –
6 | COc1cc2ncnc(Nc3ccc(F)c(Cl)c3)c2cc1NC(=O)/C=C/CN1CCCCC1 [Dacomitinib] | 6.11 | 5.79 | 6.31 | 2.97 | – | 4880 | –
7 | C#Cc1cccc(Nc2ncnc3cc(OCCOC)c(OCCO)cc23)c1.Cl [DesMethyl Erlotinib] | 6.29 | < 5.30 | >9.72 | – | – | – | > 5000
8 | Cc1ccc(-n2nc(C(C)(C)C)cc2NC(=O)Nc2ccc(OCCN3CCOCC3)c3ccccc23)cc1 [Doramapimod] | 6.46 | < 5.30 | >14.24 | – | > 5000 | – | –
9 | COC1=C2C[C@@H](C)C[C@H](OC)[C@H](O)[C@@H](C)/C=C(\C)[C@H](OC(N)=O)[C@@H](OC)/C=C\C=C(/C)C(=O)NC(=CC1=O)C2=O [Geldanamycin] | 5.83 | < 5.30 | >3.38 | – | > 5000 | – | –
10 | Cn1c2ccccc2c2c3c(c4c5ccccc5n(CCC#N)c4c21)CNC3=O [Go6976] | 6.21 | 5.91 | 6.39 | 3.22 | – | 3950 | –
11 | CC(C)n1nc(-c2ccc3oc(N)nc3c2)c2c(N)ncnc21 [INK 128] | 8.00 | 8.00 | 161.78 | 61.27 | – | 850 | –
12 | COc1c(C)c2c(c(O)c1C/C=C(\C)CCC(=O)OCCN1CCOCC1)C(=O)OC2 [Mycophenolate Mofetil] | 5.74 | 6.72 | >2.72 | >25.83 | – | > 5000 | –
13 | CN1CCC(NC(=O)c2cc(-c3c(O)cc(O)cc3Oc3ccc([N+](=O)[O-])cc3)on2)CC1 [NMS-E973] | 6.04 | 5.31 | – | – | – | – | –
14 | CC(C)NCCCn1c(Sc2cc3c(cc2I)OCO3)nc2c(N)ncnc21 [PU-H71] | 6.13 | 5.66 | >6.79 | >2.27 | – | > 5000 | –
15 | COc1cc(Nc2ncc(F)c(Nc3ccc4c(n3)N(COP(=O)(O)O)C(=O)C(C)(C)O4)n2)cc(OC)c1OC [R788] | 6.64 | 5.97 | 6.65 | 1.48 | – | 1560 | –
16 | CNC(=O)c1cc(Oc2ccc(NC(=O)Nc3ccc(Cl)c(C(F)(F)F)c3)c(F)c2)ccn1 [Regorafenib] | 6.36 | 5.82 | 9.30 | 2.72 | – | 4060 | –
17 | O=C1c2ccc(Nc3ccc(F)cc3F)cc2CCc2ccc(OC[C@H](O)CO)cc21 [Skepinone-L] | 6.74 | 5.59 | 11.84 | 0.83 | 2140 | – | –
18 | CNC(=O)c1cc(Oc2ccc(NC(=O)Nc3ccc(Cl)c(C(F)(F)F)c3)cc2)ccn1 [Sorafenib Tosylate] | 5.90 | 5.41 | 4.67 | 1.53 | > 5000 | – | –
19 | Nc1ccc(-c2ccc3ncc4ccc(=O)n(-c5cccc(C(F)(F)F)c5)c4c3c2)cn1 [Torin 2] | 6.51 | 7.05 | – | – | – | – | –
20 | COc1cccc(-c2ccc(NC(=O)C3=C(C(=O)O)CCC3)c(F)c2)c1 [Vidofludimus] | 5.79 | 6.03 | >3.07 | >5.35 | – | > 5000 | –
21 | CCn1c(=O)c(-c2cc[nH]n2)cc2c(C)nc(N)nc21 [Voxtalisib] | 6.33 | 5.57 | 4.83 | 0.83 | 2260 | – | –
22 | AZD4547 | – | – | 8.78 | – | – | – | –

More lines, main results first:

Row | pEC50 (AdV3) | pEC50 (AdV5) | Compound | Selective Index AdV3 (AdV3) | Selective Index AdV5 (AdV5) | CC50 at 48 h (in vitro) [nM] | CC50 at 48 h (in vitro; Vero cells) [nM] | CC50 (Vero cells) [nM]
23 | 6.74 | 6.64 | CCNC(=O)c1noc(-c2cc(C(C)C)c(O)cc2O)c1-c1ccc(CN2CCOCC2)cc1 [AUY922] | >28.56 | >22.11 | > 5000 | – | –
24 | 7.70 | 7.15 | CNC(=O)c1cccc(-c2ccc3c(N4CCOC[C@@H]4C)nc(N4CCOC[C@@H]4C)nc3n2)c1 [AZD2014] | 171.31 | 56.82 | 4050 | – | –
25 | 6.96 | 6.80 | COc1ccc(-c2ccc3c(N4CCOC[C@@H]4C)nc(N4CCOC[C@@H]4C)nc3n2)cc1CO [AZD8055] | >44.72 | >31.87 | > 5000 | – | –
26 | 7.00 | 6.62 | COc1c(C)cnc(Cn2cnc3c(Cl)nc(N)nc32)c1C [BIIB021] | >48.73 | >21.2 | > 5000 | – | –
27 | 6.19 | 6.22 | CCCCOc1c(C(=O)c2c(F)cc(C)cc2F)c[nH]c2nncc1-2 [BMS-265246] | >7.84 | >8.35 | – | > 5000 | –
28 | 5.95 | 5.86 | CO[C@H]1CC[C@H](N2C(=O)CNc3ncc(-c4ccc(C(C)(C)O)nc4)nc32)CC1 [CC-223] | >4.50 | >3.62 | – | > 5000 | –
29 | 7.05 | 6.19 | NC(=O)CCCSc1nc(N)nc(-c2c(Cl)cc3c4c(cccc24)COC3)n1 [CH5138303] | – | – | – | – | –
30 | 5.86 | 5.58 | CCNC(=O)Nc1ccc(-c2nc3c(c(N4CCOC[C@@H]4C)n2)CCN(C2COC2)C3)cc1 [GDC-0349] | >3.63 | >1.91 | – | > 5000 | –
31 | 7.10 | 6.57 | Cc1c(CN2CCN(C(=O)[C@H](C)O)CC2)sc2c(N3CCOCC3)nc(-c3cnc(N)nc3)nc12 [GDC-0980] | 36.44 | 10.96 | 3000 | – | –
32 | 7.00 | 6.28 | O=C(/C=C\n1cnc(-c2cc(C(F)(F)F)cc(C(F)(F)F)c2)n1)NNc1cnccn1 [KPT-330] | 15.45 | 3.04 | 1580 | – | –
33 | 5.44 | 5.89 | O=C(c1ccc(/C=C/c2n[nH]c3ccccc23)cc1)N1CCNCC1 [KW-2449] | >1.37 | >3.91 | > 5000 | – | –
34 | 6.05 | 5.88 | CO[C@@H](C)Cn1c(=O)n(C)c2cnc3ccc(-c4cncc(C(C)(C)O)c4)cc3c21 [LY3023414] | >5.58 | >3.83 | > 5000 | – | –
35 | 5.54 | 5.79 | CN1CCN(c2ccc(Nc3ncc4cc(C#N)c(=O)n(C5CCCC5)c4n3)cc2)CC1 [ON123300] | >1.72 | >3.08 | – | > 5000 | –
36 | 5.86 | 5.62 | COc1cccc2cc(-c3nc([C@H]4CC[C@H](C(=O)O)CC4)n4ncnc(N)c34)[nH]c12 [OSI-027] | >3.62 | >2.08 | > 5000 | – | –
37 | 6.27 | 5.65 | Cc1nc(Nc2[nH]nc3c2CN(C(=O)N[C@H](CN(C)C)c2ccccc2)C3(C)C)c2sccc2n1 [PF-3758309] | >9.29 | >2.22 | – | > 5000 | –
38 | 6.72 | 6.40 | CC1(C)CC(=O)c2c(C(F)(F)F)nn(-c3ccc(C(N)=O)c(N[C@H]4CC[C@H](OC(=O)CN)CC4)c3)c2C1 [PF-04929113] | >26.61 | >12.46 | > 5000 | – | –
39 | 7.70 | 5.80 | CNC(=O)c1ccc(C)c(-n2c(C)cc(OCc3ccc(F)cc3F)c(Br)c2=O)c1 [PH-797804] | >250.00 | >3.16 | > 5000 | – | –
40 | 5.89 | < 5.30 | Cn1c(Nc2ccc(C(F)(F)F)cc2)nc2cc(Oc3ccnc(-c4ncc(C(F)(F)F)[nH]4)c3)ccc21 [RAF265] | >3.91 | – | > 5000 | – | –
41 | 6.77 | 6.48 | CC1(C)CC(=O)c2c(C(F)(F)F)nn(-c3ccc(C(N)=O)c(N[C@H]4CC[C@H](O)CC4)c3)c2C1 [SNX-2112] | >28.87 | >15.09 | – | > 5000 | –
42 | 7.30 | 7.30 | CC(C)c1cc(-c2n[nH]c(=O)n2-c2ccc3c(ccn3C)c2)c(O)cc1O [STA-9090] | 97.56 | 76.73 | – | 4440 | –
